These results are taken from US20180015051A1, “MODULATORS OF ALPHA-DICARBONYL DETOXIFICATION AND THEIR USE FOR THE TREATMENT OF DIABETIC PATHOLOGIES” (Buck Institute for Research on Aging, priority 2016, published 2018).

For one data set, the system named is glod-4 animals. Description: LC-MS/MS estimation of a-DC levels (MGO, GO) in worms. Type of data set: in vivo, Caenorhabditis elegans. To be noted: for Levels of GO / Levels of MGO: glod-4, PA; for Levels of GO: LA, or UMP (20 pM each) vs EtOH control; for Levels of MGO: LA, or UMP (20 pM) vs EtOH control. The method, then: Worms were cultured on NGM agar plates as explained before for lifespan experiments with some modifications: ˜100 animals/60 mm plates were used for each experimental replicate and animals were harvested at day 4 of adulthood with 20 pL M9 buffer in 1.5 mL eppendorf tubes. Worm suspensions were flash-frozen over liquid nitrogen and subsequently homogenized ultrasonically using a Fisher Scientific's 550 Sonic Dismembrator with 80 pL of sodium formate buffer (pH=3) containing 75 pM of 2,3-hexanedione (internal standard, IS). Two 20 s pulses at amplitude setting 4 of the instrument (on ice) were sufficient to completely homogenize worm bodies. To each homogenate tube 20 pL of 100 mg/mL o-phenelynediamine (OPD) solution in sodium formate buffer (pH=3) were added, and the mixture was allowed to react in dark at room temperature for ˜22 h. The long reaction time and the pH are critical parameters in this protocol: first to ensure complete derivatization of a-DCs bound reversibly to protein/glutathione —SHs; and second to prevent in vitro a-DC generation from glycolytic intermediates (DHAP, GAP, etc.) or due to DNA breakdown (Chaplen et al. (1998) Proc. Natl. Acad. Sci. USA, 95: 5533-5538). At the end of the stipulated reaction window, 12 pL of 5 M perchloric acid was added to each tube and incubated on ice for 30 min to ensure complete protein precipitation. Subsequently, the tubes were centrifuged at 10,000 rpm for 10 min, and the supernatant collected and neutralized with 30 pL 4 M NH4OH solution.
Optimization of analyte-specific MRM transitions, such as determination of suitable precursor and product ions and optimal MS parameters for each transition (Q1, precursor→Q3, product) were achieved by isocratic flow injection of the 10 pM solution (final) for each standard- or IS-OPD derivatives. The most intense (Q1→Q3) transition was used as quantifier, whereas the next best transition was used as qualifier for each compound (Table 4). For LC separation, a solvent gradient of 0.1% acetic acid in water (aqueous) - methanol (organic) was used with 0.4 mL/min flow rate, starting with an […] content of 3% for 0.7 min, which was increased to 100% over 6 min and held at 100% for 1.5 min. The LC column was subsequently reconstituted to its initial condition (methanol content of 3%) over the next 0.5 min and re-equilibrated for 3 min.
Derivatized metabolome extracts, as well as synthetic a-DCs were analyzed by scheduled LC-MRM in positive ion mode. To develop the scheduled LC-MRM method, MS/MS data was collected for all transitions across the length of each LC run for a mixture of synthetic GO-, MGO-, 3DG-, and 2,3-hexanedione (IS)-OPD derivatives (1 pL injection of 1 pM final concentration). Source conditions were as follows: curtain gas (CUR) 20, nebulizer gas (GS1) 60, auxiliary gas (GS2) 50, ionspray voltage (IS) 4500 V, and source temperature (TEM) 450° C. This step was undertaken to ascertain the LC retention times (RT) for the OPD derivatives. Several such sets were acquired to compute analyte-specific variability in RTs. Next, the MS was switched to operate in scheduled MRM mode, whereby the mass spectrometer acquired data for specific MRM transitions ±45 s around the computed RT for the analyte (Table 4). Relative quantification of GO, MGO, and 3DG were based on integration of corresponding OPD derivative-specific quantifier peaks obtained from scheduled LC-MRM runs (peak areas) and adjusted to the number of animals. To account for OPD derivatization efficiencies in individual tubes, sample-to-sample variability in MS response, and differential sample dilutions (both for synthetic a-DCs as well as a-DCs in worm homogenates), the peak areas were normalized to the quantifier peak area for IS-OPD for each sample.

Data set [1] relates to C. elegans. Description: Touch assay (touch index, gentle touch). The method, then: For feeding RNAi bacteria, synchronized L1 larvae were transferred to NGM plates containing 1 mM of isopropyl P-D-1- thiogalactopyranoside/IPTG (referred to as RNAi plates) seeded with 20× concentrated HT1115 bacteria (cultured overnight at 20° C. at 220 rpm), carrying desired plasmid for RNAi of a specific gene or bacteria carrying empty vector pL4440 as control and allowed to grow on plates for 48 h. For drug assays, synchronized L4 larvae were transferred to either 60 mm NGM plates (with or without IPTG), freshly seeded with 5×E. coli OP50-1 or 20× HT1115 RNAi bacteria. Before seeding, the desired drug (or vehicle control) was mixed with the bacteria. Final drug concentrations were calculated considering the total volume of media and bacteria seeded on the NGM plates.
Briefly, each animal was touched alternately in the head region and in the tail with an eyelash. Typically, an omega turn or diversion in head direction resulting from anterior touch was counted as a positive response. Posterior touch response (not counted towards positive response) functioned towards resetting of the response to anterior touch. Touch index (TI) scores were generated by dividing the total number of positive responses over the […] per animal.
Synchronized glod-4 L1 animals were cultured on NGM agar plates seeded with E. coli OP50-1 until L4. […] Post-transfer into wells, animals were fed OP50-1 bacteria ad libitum while incubating at 20° C. on a rocker for 12 h. DMSO was used as control. Post-incubation with drug or DMSO, animals were transferred from wells onto NGM agar plates seeded with OP50-1 bacteria. Touch assay was performed on individual animal and touch index (TI) was calculated for each compound from the library as mentioned earlier.

The test system of data set [2] is C. elegans. Description: Neuronal damage assay, pan-neuronal GFP reporter (unc-33p::gfp). It is filed as in vivo, Caenorhabditis elegans. The protocol: Animals were paralyzed using freshly prepared 5 mM levamisole in M9 buffer and mounted on 2% agar pads under glass coverslips. […] Images were acquired under 40× objective. Neuronal deterioration was examined and characterized by loss of fluorescent intensity of nerve ring, neuronal waviness, and thinning and fragmentation of axons and neuronal commissures. Quantification and imaging of animals harboring damage was performed using the Image J™ software (//imagei.nih.gov/ii/).

As for `O=C(O)CCCCC1CCSS1` (stereo not shown) [LA, a-lipoic acid], in the data set on glod-4 animals, the “Levels of GO” value is on record as “almost wild-type-like levels” and the “Levels of MGO” value is “almost wild-type-like levels”.

As to `C[C@]1(C(=O)O)CCC[C@]2(C)c3cc(O)ccc3CC[C@@H]12` [PA, podocarpic acid], the “Touch sensitivity (touch index), lack of touch sensitivity” value with C. elegans [1] (glod-4, day 8 of adulthood, PA (20 pM) vs EtOH control) is reported as “lack of touch sensitivity to wild-type levels”. Further, the “Touch sensitivity (touch index), hyperesthesia” value in the data set on C. elegans [1] (glod-4, young adult stage, PA (20 pM) vs EtOH control) is listed as “revert the hyperesthesia”. For the same compound, in the data set with glod-4 animals, the “Levels of GO” value is “almost wild-type-like levels” and the “Levels of MGO” value was “almost wild-type-like levels”. Moreover, the “Levels of MGO under trpa-1 knockdown” value with glod-4 animals (glod-4 on trpa-1 RNAi, PA vs EtOH control) is “no effect”. For the same compound, the Neuronal damage result in the data set on C. elegans [2] (unc-33p::gfp on glod-4 RNAi, day 10 of adulthood, PA (20 pM) vs EtOH control) is “prevent the prominent neuronal damages”.

Turning to `CC(=O)C=O` [MGO, methylglyoxal], the “Touch sensitivity (touch index)” value with C. elegans [1] (N2 animals, young adult stage, 7 mM MGO vs water) is recorded as “hyperesthesia”. Further, the Neuronal damage entry with C. elegans [2] (unc-33p::gfp, day 4 of adulthood, 7 mM MGO vs water) was “neuronal damage”.
